Data reported in patent US6251893A, “Bicyclic piperidine and piperazine compounds having 5-HT6 receptor affinity” (NPS Allelix Corp., priority 1998, dated 2001).

Columns and labels:
[1] = target: 5-HT2A receptor (Homo sapiens, UniProt P28223); assay: Binding to 5-HT2A receptor (selectivity); parameters: dose or concentration left out as unconfirmed; conditions: selectivity versus 5-HT6; read-out: percent inhibition for the 5-HT2A receptor
[2] = target: T1, 5HT2C receptor (Homo sapiens, UniProt P28335); assay: Binding to 5HT2C receptor (selectivity); conditions: selectivity versus 5-HT6; read-out: percent inhibition for the 5HT2C receptor
T1 sequence (P28335 33-458): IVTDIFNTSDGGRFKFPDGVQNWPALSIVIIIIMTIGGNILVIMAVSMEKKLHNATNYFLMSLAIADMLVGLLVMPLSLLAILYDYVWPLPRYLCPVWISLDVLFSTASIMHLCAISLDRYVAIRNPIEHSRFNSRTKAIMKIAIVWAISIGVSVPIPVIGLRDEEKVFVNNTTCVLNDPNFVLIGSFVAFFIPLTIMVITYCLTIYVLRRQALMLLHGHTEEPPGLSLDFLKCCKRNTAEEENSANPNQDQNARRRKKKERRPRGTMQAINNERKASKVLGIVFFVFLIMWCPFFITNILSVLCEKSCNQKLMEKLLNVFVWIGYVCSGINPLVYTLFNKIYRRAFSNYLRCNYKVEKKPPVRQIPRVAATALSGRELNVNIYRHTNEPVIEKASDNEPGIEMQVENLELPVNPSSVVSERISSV

[3] = target: 5-HT7 receptor (Homo sapiens, UniProt P34969); assay: Binding to 5-HT7 receptor (selectivity); parameters: dose or concentration left out as unconfirmed; conditions: selectivity versus 5-HT6; read-out: percent inhibition for the 5-HT7 receptor
[4] = target: human 5HT6 receptor (Homo sapiens, UniProt P50406); assay: Binding affinity for the 5-HT6 receptor (3H-LSD displacement); parameters: expressed in transfected cells; conditions: 100 nM test compound; 3H-LSD (2 nM); 60 minute incubation at 37° C; read-out: percent inhibition of radioligand binding for the 5-HT6 receptor
Method: Binding Affinity for the 5-HT6 Receptor
The assay protocol generally entailed the incubation of membranes prepared from cells expressing the 5-HT6 receptor with ^3 H-LSD (2 nM). Increasing levels of the test compound were incubated with the radioligand and the membrane homogenates prepared from the recombinant cells. After a 60 minute incubation at 37° C., the incubation was terminated by vacuum filtration. The filters were washed with buffer and the filters were counted for radioactivity using liquid scintillation spectrometry. […] Concentrations ranging from 10^-11 M to 10^-5 M of the test compound were evaluated. […] Affinity for the 5-HT6 receptor is expressed as the amount (in percent) of binding of the radioligand that is inhibited in the presence of 100 nM of test compound. A greater percent inhibition indicates greater affinity for the 5-HT6 receptor.

5-HT7 receptor, sequence (P34969 whole entry): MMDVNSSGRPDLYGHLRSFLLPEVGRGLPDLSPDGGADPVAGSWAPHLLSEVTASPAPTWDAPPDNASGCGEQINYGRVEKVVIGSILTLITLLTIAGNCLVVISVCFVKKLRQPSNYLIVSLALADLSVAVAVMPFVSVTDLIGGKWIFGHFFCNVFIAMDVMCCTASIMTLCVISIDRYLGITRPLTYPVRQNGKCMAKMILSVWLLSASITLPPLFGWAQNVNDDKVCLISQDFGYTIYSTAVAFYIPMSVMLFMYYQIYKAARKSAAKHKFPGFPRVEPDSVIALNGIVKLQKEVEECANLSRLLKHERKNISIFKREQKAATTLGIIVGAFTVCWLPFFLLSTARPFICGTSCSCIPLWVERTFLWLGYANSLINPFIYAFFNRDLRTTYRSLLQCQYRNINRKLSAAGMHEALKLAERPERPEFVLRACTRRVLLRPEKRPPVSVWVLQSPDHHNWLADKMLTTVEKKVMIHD
5-HT2A receptor, sequence (P28223 whole entry): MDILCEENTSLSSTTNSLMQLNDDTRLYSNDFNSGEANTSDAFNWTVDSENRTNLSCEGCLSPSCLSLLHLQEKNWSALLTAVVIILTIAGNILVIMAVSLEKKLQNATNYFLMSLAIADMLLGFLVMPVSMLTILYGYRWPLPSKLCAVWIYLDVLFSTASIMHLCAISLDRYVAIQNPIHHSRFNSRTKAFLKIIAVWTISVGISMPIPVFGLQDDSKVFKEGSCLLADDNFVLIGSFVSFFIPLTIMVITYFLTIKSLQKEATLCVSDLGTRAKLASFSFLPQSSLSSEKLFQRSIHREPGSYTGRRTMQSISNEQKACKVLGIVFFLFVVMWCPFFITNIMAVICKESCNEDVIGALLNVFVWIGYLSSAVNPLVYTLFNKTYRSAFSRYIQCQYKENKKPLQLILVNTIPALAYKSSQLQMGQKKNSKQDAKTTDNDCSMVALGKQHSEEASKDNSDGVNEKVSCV
human 5HT6 receptor, sequence (P50406 whole entry): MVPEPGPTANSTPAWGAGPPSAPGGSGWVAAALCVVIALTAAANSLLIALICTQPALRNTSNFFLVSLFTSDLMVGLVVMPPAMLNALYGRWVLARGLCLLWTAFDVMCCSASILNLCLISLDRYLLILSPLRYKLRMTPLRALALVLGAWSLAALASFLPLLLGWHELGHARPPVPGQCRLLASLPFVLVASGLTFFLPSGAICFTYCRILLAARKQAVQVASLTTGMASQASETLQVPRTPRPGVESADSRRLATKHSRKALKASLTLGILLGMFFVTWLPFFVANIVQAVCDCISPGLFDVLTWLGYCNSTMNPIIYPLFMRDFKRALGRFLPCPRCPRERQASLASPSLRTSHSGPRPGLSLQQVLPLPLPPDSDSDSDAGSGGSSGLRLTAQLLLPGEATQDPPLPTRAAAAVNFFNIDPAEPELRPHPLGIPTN

Row | Compound | inhibition [1] [%] | inhibition at 0.1 µM [2] [%] | inhibition [3] [%] | inhibition at 0.1 µM [4] [%]
1 | O=S(=O)(c1ccc2ccccc2c1)n1cc(N2CCN3CCCC3C2)c2ccccc21 (racemic) [Example 6a, 3-[(6-R,S)-1,4-Diaza[4.3. 0]bicyclonon-4-yl]-1-(2-naphthalenesulfonyl)indole] | < 20 | < 20 | < 20 | > 80
2 | O=S(=O)(c1ccc(F)cc1)n1cc(C2=CCN3CCCC3C2)c2cc(F)ccc21 (racemic) [Example 6aa, 5-Fluoro-1-(4-fluorophenylsulfonyl)-3-[(8a-R,S)-1,2,3,5,8,8a-hexahydro-7-indolizinyl]indole] | < 20 | < 20 | < 20 | > 80
3 | O=S(=O)(c1ccc(Br)cc1)n1cc(C2=CCN3CCCC3C2)c2cc(F)ccc21 (racemic) [Example 6bb, 1-(4-Bromophenylsulfonyl)-5-fluoro-3-[(8a-R,S)-1,2,3,5,8,8a-hexahydro-7-indolizinyl]indole] | < 20 | < 20 | < 20 | > 80
4 | O=S(=O)(c1ccc(Br)cc1)n1cc(N2CCN3CCCC3C2)c2ccccc21 (racemic) [Example 6c, 1-(4-Bromophenylsulfonyl)-3-[(6-R,S)-1,4-diaza[4.3. 0]bicyclonon-4-yl]indole] | < 20 | < 20 | < 20 | > 80
5 | O=S(=O)(c1ccccc1Br)n1cc(C2=CCN3CCCC3C2)c2cc(F)ccc21 (racemic) [Example 6cc, 1-(2-Bromophenylsulfonyl)-5-fluoro-3-[(8a-R,S)-1 ,2,3,5,8,8a-hexahydro-7-indolizinyl]indole] | < 20 | < 20 | < 20 | > 80
6 | CC(C)(C)c1ccc(S(=O)(=O)n2cc(N3CCN4CCCC4C3)c3ccccc32)cc1 (racemic) [Example 6d, 1-(4-t-Butylphenylsulfonyl)-3-[(6-R,S)-1,4-diaza[4.3. 0]bicyclonon-4-yl]indole] | < 20 | < 20 | < 20 | > 80
7 | Cc1ccc(S(=O)(=O)n2cc(C3=CCN4CCCC4C3)c3cc(F)ccc32)cc1 (racemic) [Example 6dd, 5-Fluoro-3-[(8a-R,S)-1,2,3,5,8,8a-hexahydro-7-indolizinyl]-1-(4-methylphenylsulfonyl)indole] | < 20 | < 20 | < 20 | > 80
8 | O=S(=O)(c1ccc(Cl)cc1)n1cc(N2CCN3CCCC3C2)c2ccccc21 (racemic) [Example 6e, 1-(4-Chlorophenylsulfonyl)-3-[(6-R,S)-1,4-diaza[4.3. 0]bicyclonon-4-yl]indole] | – | – | – | > 80
9 | COc1ccc(S(=O)(=O)n2cc(C3=CCN4CCCC4C3)c3cc(F)ccc32)cc1 (racemic) [Example 6ee, 5-Fluoro-3-[(8a-R,S)-1,2,3,5,8,8a-hexahydro-7-indolizinyl]-1-(4-methoxyphenylsulfonyl)indole] | < 20 | < 20 | < 20 | > 80
10 | O=S(=O)(c1ccc(F)cc1)n1cc(N2CCN3CCCC3C2)c2ccccc21 (racemic) [Example 6f, 3-[(6-R,S)-1,4-Diaza[4.3. 0]bicyclonon-4-yl]-1-(4-fluorophenylsulfonyl)indole] | – | – | – | > 80
11 | COc1ccc(S(=O)(=O)n2cc(N3CCN4CCCC4C3)c3ccccc32)cc1 (racemic) [Example 6g, 3-[(6-R,S)-1,4-Diaza[4.3. 0]bicyclonon-4-yl]-1-(4-methoxyphenylsulfonyl)indole] | < 20 | < 20 | < 20 | > 80
12 | CC(C)(C)c1ccc(S(=O)(=O)n2cc(C3=CCN4CCCC4C3)c3cc(F)ccc32)cc1 (racemic) [Example 6gg, 1-(4-t-Butylphenylsulfonyl)-5-fluoro-3-[(8a-R,S)-1,2,3,5,8,8a-hexahydro-7-indolizinyl]indole] | < 20 | < 20 | < 20 | > 80
13 | O=S(=O)(c1cc(Cl)ccc1Cl)n1cc(N2CCN3CCCC3C2)c2ccccc21 (racemic) [Example 6h, 3-[(6-R,S)-1,4-Diaza[4.3. 0]bicyclonon-4-yl]-1-(2,5-dichlorophenylsulfonyl)indole] | – | – | – | > 80
14 | O=S(=O)(c1cc(Cl)ccc1Cl)n1cc(C2=CCN3CCCC3C2)c2cc(F)ccc21 (racemic) [Example 6hh, 1-(2,5-Dichlorophenylsulfonyl)-5-fluoro-3-[(8a-R,S)-1,2,3,5,8,8a-hexahydro-7-indolizinyl]indole] | < 20 | < 20 | < 20 | > 80
15 | O=S(=O)(c1ccccc1Br)n1cc(N2CCN3CCCC3C2)c2ccccc21 (racemic) [Example 6i, 1-(2-Bromophenylsulfonyl)-3-[(6-R,S)-1,4-diaza[4.3. 0]bicyclonon-4-yl]indole] | – | – | – | > 80
16 | O=S(=O)(c1ccc(Cl)cc1)n1cc(C2=CCN3CCCC3C2)c2cc(F)ccc21 (racemic) [Example 6ii, 1-(4-Chlorophenylsulfonyl)-5-fluoro-3-[(8a-R,S)-1,2,3,5,8,8a-hexahydro-7-indolizinyl]indole] | < 20 | < 20 | < 20 | > 80
17 | O=S(=O)(c1ccccc1)n1cc(C2=CCN3CCCC3C2)c2cc(F)cc(F)c21 (racemic) [Example 6jj, 5,7-Difluoro-3-[(8a-R,S)-1,2,3,5,8,8a-hexahydro-7-indolizinyl]-1-phenylsulfonylindole] | < 20 | < 20 | < 20 | > 80
18 | Cc1ccc(S(=O)(=O)n2cc(N3CCN4CCCC4C3)c3ccccc32)cc1 (racemic) [Example 6k, 3-[(6-R,S)-1,4-Diaza[4.3. 0]bicyclonon-4-yl]-1-(4-methylphenylsulfonyl)indole] | – | – | – | > 80
19 | Cc1ccc(S(=O)(=O)n2cc(N3CCN4CCCCC4C3)c3ccccc32)cc1 (racemic) [Example 6v, 3-[(6-R,S)-1,4-Diaza[4.4. 0]bicyclodecan-4-yl]-1-(4-methylphenylsulfonyl)indole] | – | – | – | > 80
20 | Cc1ccc(S(=O)(=O)n2nc(N3CCN4CCCC4C3)c3ccccc32)cc1 (racemic) [Example 7a, 3-[(6-R,S)-1,4-Diaza[4.3. 0]bicyclonon-4-yl]-1-(4-methylphenylsulfonyl)indazole] | – | – | – | > 80
21 | Cc1ccc(S(=O)(=O)n2nc(N3CCN4CCCCC4C3)c3ccccc32)cc1 (racemic) [Example 7b, 3-[(6-R,S)-1,4-Diaza[4.4. 0]bicyclodecan-4-yl]-1-(4-methylphenylsulfonyl)indazole] | – | – | – | > 80
22 | Cc1cccc(-n2cc(C3CCN4CCCC4C3)c3cc(F)ccc32)c1 (racemic) [Example 9a, 5-Fluoro-3-[(7-R,S)(8a-R,S)-octahydro-7-indolizinyl]-1-(3-methylphenyl)indole] | – | – | – | > 80
23 | O=S(=O)(c1ccccc1)n1cc(C2=CCN3CCCC3C2)c2cc(OC3CCCCC3)ccc21 (racemic) [Example 10i, 5-Cyclohexyloxy-3-[(8a-R,S)-1,2,3,5,8,8a-hexahydrohydro-7-indolizinyl]-1-phenylsulfonylindole] | – | – | – | > 80
24 | Fc1ccc2c(c1)c(C1CCN3CCCC3C1)cn2Cc1ccccc1 (single isomer, unassigned; isomer i) [Example 10h, 1-Benzyl-5-fluoro-3-[(7R or 7S)(8a-R,S)-octahydrohydro-7-indolizinyl]indole, Isomer I] | – | – | – | > 80
25 | O=S(=O)(c1cc(Cl)ccc1Cl)n1cc(C2CCN3CCCC3C2)c2cc(F)ccc21 (single isomer, unassigned; isomer i) [Example 10j, 1-(2,5-Dichlorophenylsulfonyl)-5-Fluoro-3-[(7R or 7S)(8a-R,S)-octahydrohydro-7-indolizinyl]indole, Isomer I] | – | – | – | > 80
26 | Cc1cccc(S(=O)(=O)n2cc(C3CCN4CCCC4C3)c3cc(F)ccc32)c1 (single isomer, unassigned; isomer i) [Example 10k, 5-Fluoro-1-(3-methylphenylsulfonyl)-3-[(7R or 7S)(8a-R,S)octahydrohydro-7-indolizinyl]lindole, Isomer I] | – | – | – | > 80
